# Experimental data as given in US11591604B2, “Gene expression in Bacteroides” (Massachusetts Institute of Technology, priority 2015, dated 2023).
# Tested on: NanoLuc
# Experiment: NanoLuc luciferase reporter expression from constitutive promoters and RBSs integrated with pNBU2
# Type: cell-based, B. thetaiotaomicron
# Conditions: RBS combined with promoter PBT1311, NanoLuc reporter, three biological replicates
# From the text: FIGS. 1A-1G. Genetic parts to control expression in B. thetaiotaomicron. (FIG. 1A) The ranges of gene expression are shown for the different gene regulation systems provided herein. (FIG. 1B) IntN2 catalyzes stable integration of pNBU2-based expression constructs into one of two attBT2 sites in the B. thetaiotaomicron genome. The two attBT2 sites (attBT2-1 at nucleotide (nt) 6,217,227 and attBT2-2 at nt 6,138,320) are in the 3′ ends of tRNA^Ser genes (BT_t71 and BT_t70, respectively). (FIG. 1C) Constitutive promoters and ribosome binding sites for the construction of gene expression libraries. The putative −33 and −7 regions of the PBT1311 promoter, the Shine-Delgarno sequence, and the start codon are indicated by black boxes. Numbers below the black boxes represent nucleotide locations relative the PBT1311 transcription start site. The 26 nt sequences introduced in the PAM promoters are shown (see also FIGS. 6A-6B). Numbers at the edges of the boxes indicate the PBT1311 nucleotides replaced or the insertion site within the promoter. The location of residues randomized in the rpiL* RBS library are indicated with gray arrows (for library A: nt −14, −13, −12; for library B: nt −21, −18, −15; and for library C: nt −17, −16, −11; nt numbering is relative to the translation start site). (FIG. 1D) Activity was measured for a set of constitutive promoters and their cognate RBSs. Furthermore, a set of constitutive promoters (PBT1311, PAM1, PAM2, PAM3, PAM4) was combined with RBSs of varying strengths. Gene expression was measured using a luciferase reporter (NanoLuc). (FIG. 1E) Three large RBS libraries were constructed and combined with promoter PBT1311 to span 10^3-fold in gene expression. For reference, the parent rpiL* RBS is indicated with a black arrow. For D and E, error bars represent the standard deviation of three independent biological replicates made on separate days. (FIG. 1F) The strength of each RBS was compared to the predicted free energy of folding for the mRNA (ΔGfold,). (FIG. 1G) Strong (SEQ ID NO: 210) and weak (SEQ ID NO: 211) consensus sequences for the rpiL* −21 to −11 RBS region targeted by mutagenesis (residue locations are stated relative to the translation start site) are provided. Frequency logos were generated for the 11 strongest and 11 weakest RBSs by comparing the frequency of each nucleotide at each position in that group with the frequency of that nucleotide in that position in the full library. Position −20 and −19 were not randomized and are thus are not shown in the frequency logos.
# All genetic parts in this study were characterized using the integration vector pNBU2 to ensure genetic stability of the constructs (FIG. 1B). The pNBU2 plasmid encodes the intN2 tyrosine integrase, which mediates sequence-specific recombination between the attN site of pNBU2 and one of two attBT sites located in the 3′ ends of the two tRNA^Ser genes, BT_t70 and BT_t71, on the B. thetaiotaomicron chromosome (FIG. 1B). Insertion of the pNBU2 plasmid inactivates the tRNA^Ser gene, and simultaneous insertion into both BT_t70 and BT_t71 is unlikely due to the essentiality of tRNA^Ser. pNBU2-based vectors have been used for single-copy complementation in B. thetaiotaomicron in in vitro studies (Koropatkin N M et al. Nat. Rev. Microbiol. 10:323-35, 2012) and in vivo mouse models (Martens E C et al. Cell Host Microbe 4:447-57, 2008).
# B. thetaiotaomicron genetic parts were characterized with NanoLuc luciferase (Hall M P et al. ACS Chem. Biol. 7:1848-1857, 2012), which is a small (19 kDa) modified shrimp luciferase. Efforts to use members of the green fluorescent protein family and a FMN-based fluorescent reporter were not successful. NanoLuc oxidizes the exogenously-added substrate furimazine to produce glow-type bioluminescence (Emax=460 nm) with a signal half-life of 2 hr. […]
row,Substance,Average Luminescence (RLU/CFU)
1,"A2: RBS, SEQ ID NO: 15 (DNA TCCCGCATTTTAAAATAAAATAAATTATTTTTTTACTTAAACGAAT; chemistry not fully specified)",0.03616
2,"A3: RBS, SEQ ID NO: 24 (DNA TCCCGCATTTTAAAATAAAATAAATTATTAGTTTAGTTAAACGAAT; chemistry not fully specified)",0.02867
3,"A4: RBS, SEQ ID NO: 29 (DNA TCCCGCATTTTAAAATAAAATAAATTATTAATTTAATTAAACGAAT; chemistry not fully specified)",0.02664
4,"A5: RBS, SEQ ID NO: 32 (DNA TCCCGCATTTTAAAATAAAATAAATTATTTCTTTACTTAAACGAAT; chemistry not fully specified)",0.02579
5,"A6: RBS, SEQ ID NO: 33 (DNA TCCCGCATTTTAAAATAAAATAAATTATTTCTTTAATTAAACGAAT; chemistry not fully specified)",0.0256
6,"A7: RBS, SEQ ID NO: 34 (DNA TCCCGCATTTTAAAATAAAATAAATTATTAGTTTAATTAAACGAAT; chemistry not fully specified)",0.02467
7,"A8: RBS, SEQ ID NO: 44 (DNA TCCCGCATTTTAAAATAAAATAAATTATTAGTTTATTTAAACGAAT; chemistry not fully specified)",0.02026
8,"A9: RBS, SEQ ID NO: 46 (DNA TCCCGCATTTTAAAATAAAATAAATTATTGTTTTACTTAAACGAAT; chemistry not fully specified)",0.0186
9,"A10: RBS, SEQ ID NO: 49 (DNA TCCCGCATTTTAAAATAAAATAAATTATTGCTTTAGTTAAACGAAT; chemistry not fully specified)",0.01835
10,"A12: RBS, SEQ ID NO: 56 (DNA TCCCGCATTTTAAAATAAAATAAATTATTGTTTTAATTAAACGAAT; chemistry not fully specified)",0.01552
11,"A13: RBS, SEQ ID NO: 58 (DNA TCCCGCATTTTAAAATAAAATAAATTATTGATTTACTTAAACGAAT; chemistry not fully specified)",0.01484
12,"A14: RBS, SEQ ID NO: 59 (DNA TCCCGCATTTTAAAATAAAATAAATTATTTCTTTATTTAAACGAAT; chemistry not fully specified)",0.01475
13,"A15: RBS, SEQ ID NO: 64 (DNA TCCCGCATTTTAAAATAAAATAAATTATTATTTTACTTAAACGAAT; chemistry not fully specified)",0.01335
14,"A16: RBS, SEQ ID NO: 65 (DNA TCCCGCATTTTAAAATAAAATAAATTATTTATTTACTTAAACGAAT; chemistry not fully specified)",0.01329
15,"A17: RBS, SEQ ID NO: 66 (DNA TCCCGCATTTTAAAATAAAATAAATTATTTTTTTAGTTAAACGAAT; chemistry not fully specified)",0.013
16,"A18: RBS, SEQ ID NO: 69 (DNA TCCCGCATTTTAAAATAAAATAAATTATTCATTTATTTAAACGAAT; chemistry not fully specified)",0.01237
17,"A19: RBS, SEQ ID NO: 70 (DNA TCCCGCATTTTAAAATAAAATAAATTATTTTTTTATTTAAACGAAT; chemistry not fully specified)",0.01206
18,"A20: RBS, SEQ ID NO: 71 (DNA TCCCGCATTTTAAAATAAAATAAATTATTTATTTATTTAAACGAAT; chemistry not fully specified)",0.01179

row,Substance,Average Luminescence (RLU/CFU)
1,"A21: RBS, SEQ ID NO: 73 (DNA TCCCGCATTTTAAAATAAAATAAATTATTTATTTACTTAAACGAAT; chemistry not fully specified)",0.01018
2,"A22: RBS, SEQ ID NO: 78 (DNA TCCCGCATTTTAAAATAAAATAAATTATTGCTTTATTTAAACGAAT; chemistry not fully specified)",0.009586
3,"A23: RBS, SEQ ID NO: 79 (DNA TCCCGCATTTTAAAATAAAATAAATTATTAGTTTACTTAAACGAAT; chemistry not fully specified)",0.009507
4,"A24: RBS, SEQ ID NO: 83 (DNA TCCCGCATTTTAAAATAAAATAAATTATTCTTTTACTTAAACGAAT; chemistry not fully specified)",0.009158
5,"A25: RBS, SEQ ID NO: 84 (DNA TCCCGCATTTTAAAATAAAATAAATTATTCCTTTAATTAAACGAAT; chemistry not fully specified)",0.008671
6,"A26: RBS, SEQ ID NO: 87 (DNA TCCCGCATTTTAAAATAAAATAAATTATTACTTTATTTAAACGAAT; chemistry not fully specified)",0.008113
7,"A27: RBS, SEQ ID NO: 89 (DNA TCCCGCATTTTAAAATAAAATAAATTATTGGTTTAGTTAAACGAAT; chemistry not fully specified)",0.007908
8,"A28: RBS, SEQ ID NO: 94 (DNA TCCCGCATTTTAAAATAAAATAAATTATTCTTTTATTTAAACGAAT; chemistry not fully specified)",0.006884
9,"A29: RBS, SEQ ID NO: 95 (DNA TCCCGCATTTTAAAATAAAATAAATTATTCCTTTATTTAAACGAAT; chemistry not fully specified)",0.006833
10,"A30: RBS, SEQ ID NO: 101 (DNA TCCCGCATTTTAAAATAAAATAAATTATTCCTTTACTTAAACGAAT; chemistry not fully specified)",0.005604
11,"A31: RBS, SEQ ID NO: 103 (DNA TCCCGCATTTTAAAATAAAATAAATTATTGGTTTATTTAAACGAAT; chemistry not fully specified)",0.005462
12,"A32: RBS, SEQ ID NO: 104 (DNA TCCCGCATTTTAAAATAAAATAAATTATTCTTTTAGTTAAACGAAT; chemistry not fully specified)",0.005311
13,"A33: RBS, SEQ ID NO: 106 (DNA TCCCGCATTTTAAAATAAAATAAATTATTTCTTTAGTTAAACGAAT; chemistry not fully specified)",0.005258
14,"A34: RBS, SEQ ID NO: 107 (DNA TCCCGCATTTTAAAATAAAATAAATTATTTGTTTACTTAAACGAAT; chemistry not fully specified)",0.005181
15,"A35: RBS, SEQ ID NO: 110 (DNA TCCCGCATTTTAAAATAAAATAAATTATTCATTTAGTTAAACGAAT; chemistry not fully specified)",0.004513
16,"A36: RBS, SEQ ID NO: 111 (DNA TCCCGCATTTTAAAATAAAATAAATTATTTGTTTAGTTAAACGAAT; chemistry not fully specified)",0.004309
17,"A37: RBS, SEQ ID NO: 113 (DNA TCCCGCATTTTAAAATAAAATAAATTATTTGTTTAATTAAACGAAT; chemistry not fully specified)",0.003964
